{"source": "ChEMBL document CHEMBL1123320", "about": "“Studies in potential filaricides. 18. Synthesis of 2,2'-disubstituted 5,5'-dibenzimidazolyl ketones and related compounds as potential anthelmintics” (1986)", "key": {"Cricetinae gen. sp. [1]": {"test_system": "Cricetinae gen. sp.", "experiment": "Anthelmintic activity against Ancylostoma ceylanicum in hamsters at a dose of 0.5x1 mg/kg administered perorally", "type": "functional, Cricetulus griseus"}, "Mastomys natalensis [2]": {"test_system": "Mastomys natalensis", "experiment": "Filaricidal activity against Brugia malayi in Mastomys at a dosage of 50 mg/kg x 5 administered intraperitoneally", "type": "functional", "settings": "route intraperitoneal"}, "Mastomys natalensis [3]": {"test_system": "Mastomys natalensis", "experiment": "Filaricidal activity against Dipetalonema viteae in Mastomys at a dosage of 6.25 mg/kg x 5 administered subcutaneous at a day of 8", "type": "functional"}, "Mastomys natalensis [4]": {"test_system": "Mastomys natalensis", "experiment": "Filaricidal activity against Dipetalonema viteae in Mastomys at a dosage of 300 mg/kg x 5 administered orally at a day of 42", "type": "functional", "settings": "route oral"}, "Mastomys natalensis [5]": {"test_system": "Mastomys natalensis", "experiment": "Filaricidal activity against Brugia malayi in Mastomys at a dosage of 200 mg/kg x 5 administered orally at a day of 63", "type": "functional", "settings": "route oral"}, "Mastomys natalensis [6]": {"test_system": "Mastomys natalensis", "experiment": "Filaricidal activity against Brugia malayi in Mastomys at a dosage of 200 mg/kg x 5 administered orally", "type": "functional", "settings": "route oral"}, "Mastomys natalensis [7]": {"test_system": "Mastomys natalensis", "experiment": "Filaricidal activity against Brugia malayi in Mastomys at a dosage of 200 mg/kg x 5 administered orally at a day of 91", "type": "functional", "settings": "route oral"}, "Litomosoides carinii": {"test_system": "Litomosoides carinii", "experiment": "Filaricidal activity against Litomosoides carinii in cotton rats at a dosage of 300 mg/kg x 5 administered orally", "settings": "route oral"}, "Mastomys natalensis [8]": {"test_system": "Mastomys natalensis", "experiment": "Filaricidal activity against Brugia malayi in Mastomys at a dosage of 200 mg/kg x 5 administered orally at a day of 21", "type": "functional", "settings": "route oral"}, "Mus musculus [9]": {"test_system": "Mus musculus", "experiment": "Anthelmintic activity against Syphacia obvelata in mice at a dose of 50x1 mg/kg administered perorally", "type": "functional"}, "Mastomys natalensis [10]": {"test_system": "Mastomys natalensis", "experiment": "Filaricidal activity against Dipetalonema viteae in Mastomys at a dosage of 300 mg/kg x 5 administered orally at a day of 8", "type": "functional", "settings": "route oral"}, "Mastomys natalensis [11]": {"test_system": "Mastomys natalensis", "experiment": "Filaricidal activity against Dipetalonema viteae in Mastomys at a dosage of 6.25 mg/kg x 5 administered subcutaneous at a day of 42", "type": "functional"}, "Rattus norvegicus [12]": {"test_system": "Rattus norvegicus", "experiment": "Filaricidal activity against Litomosoides carinii in cotton rats at a dosage of 300 mg/kg x 5 administered orally at a day of 42", "type": "functional", "settings": "route oral"}, "Cricetinae gen. sp. [13]": {"test_system": "Cricetinae gen. sp.", "experiment": "Anthelmintic activity against Ancylostoma ceylanicum in hamsters at a dose 1x 1 mg/kg administered perorally", "type": "functional, Cricetulus griseus", "settings": "route oral"}, "Sigmodon hispidus [14]": {"test_system": "Sigmodon hispidus", "experiment": "Filaricidal activity against Litomosoides carinii in cotton rats at a dosage of 10 mg/kg x 5 administered intraperitoneally at a day of 21", "settings": "route intraperitoneal"}, "Sigmodon hispidus [15]": {"test_system": "Sigmodon hispidus", "experiment": "Filaricidal activity against Litomosoides carinii in cotton rats at a dosage of 10 mg/kg x 5 administered intraperitoneally at a day of 8", "settings": "route intraperitoneal"}, "Mastomys natalensis [16]": {"test_system": "Mastomys natalensis", "experiment": "Filaricidal activity against Dipetalonema viteae in Mastomys at a dosage of 6.25 mg/kg x 5 administered subcutaneous", "type": "functional"}, "Rattus norvegicus [17]": {"test_system": "Rattus norvegicus", "experiment": "Filaricidal activity against Litomosoides carinii in cotton rats at a dosage of 300 mg/kg x 5 administered orally at a day of 21", "type": "functional", "settings": "route oral"}, "Rattus norvegicus [18]": {"test_system": "Rattus norvegicus", "experiment": "Filaricidal activity against Litomosoides carinii in cotton rats at a dosage of 10 mg/kg x 5 administered intraperitoneally at a day of 42", "type": "functional", "settings": "route intraperitoneal"}, "Mastomys natalensis [19]": {"test_system": "Mastomys natalensis", "experiment": "Filaricidal activity against Dipetalonema viteae in Mastomys at a dosage of 6.25 mg/kg x 5 administered subcutaneous at a day of 21", "type": "functional"}, "Rattus norvegicus [20]": {"test_system": "Rattus norvegicus", "experiment": "Filaricidal activity against Litomosoides carinii in cotton rats at a dosage of 300 mg/kg x 5 administered orally at a day of 8", "type": "functional", "settings": "route oral"}, "Mus musculus [21]": {"test_system": "Mus musculus", "experiment": "Anthelmintic activity against Syphacia obvelata in mice at a dose of 100x1 mg/kg administered perorally", "type": "functional"}, "Mastomys natalensis [22]": {"test_system": "Mastomys natalensis", "experiment": "Filaricidal activity against Brugia malayi in Mastomys at a dosage of 50 mg/kg x 5 administered intraperitoneally at a day of 42", "type": "functional", "settings": "route intraperitoneal"}, "Mastomys natalensis [23]": {"test_system": "Mastomys natalensis", "experiment": "Filaricidal activity against Brugia malayi in Mastomys at a dosage of 200 mg/kg x 5 administered orally at a day of 42", "type": "functional", "settings": "route oral"}, "Mastomys natalensis [24]": {"test_system": "Mastomys natalensis", "experiment": "Filaricidal activity against Brugia malayi in Mastomys at a dosage of 50 mg/kg x 5 administered intraperitoneally at a day of 91", "type": "functional", "settings": "route intraperitoneal"}, "Mastomys natalensis [25]": {"test_system": "Mastomys natalensis", "experiment": "Filaricidal activity against Dipetalonema viteae in Mastomys at a dosage of 300 mg/kg x 5 administered orally at a day of 21", "type": "functional", "settings": "route oral"}, "Cricetinae gen. sp. [26]": {"test_system": "Cricetinae gen. sp.", "experiment": "Anthelmintic activity against Ancylostoma ceylanicum (hook worm) in hamsters at a dose of 1x 1 mg/kg administered perorally", "type": "functional, Cricetulus griseus", "settings": "route oral"}, "Mastomys natalensis [27]": {"test_system": "Mastomys natalensis", "experiment": "Filaricidal activity against Brugia malayi in Mastomys at a dosage of 200 mg/kg x 5 administered orally at a day of 8", "type": "functional", "settings": "route oral"}, "Mastomys natalensis [28]": {"test_system": "Mastomys natalensis", "experiment": "Filaricidal activity against Dipetalonema viteae in Mastomys at a dosage of 300 mg/kg x 5 administered orally", "type": "functional", "settings": "route oral"}, "Mastomys natalensis [29]": {"test_system": "Mastomys natalensis", "experiment": "Filaricidal activity against Brugia malayi in Mastomys at a dosage of 50 mg/kg x 5 administered intraperitoneally at a day of 21", "type": "functional", "settings": "route intraperitoneal"}, "Mastomys natalensis [30]": {"test_system": "Mastomys natalensis", "experiment": "Filaricidal activity against Brugia malayi in Mastomys at a dosage of 50 mg/kg x 5 administered intraperitoneally at a day of 8", "type": "functional", "settings": "route intraperitoneal"}, "Mastomys natalensis [31]": {"test_system": "Mastomys natalensis", "experiment": "Filaricidal activity against Brugia malayi in Mastomys at a dosage of 50 mg/kg x 5 administered intraperitoneally at a day of 63", "type": "functional", "settings": "route intraperitoneal"}, "Rattus norvegicus [32]": {"test_system": "Rattus norvegicus", "experiment": "Anthelmintic activity against Hymenolepis nana in rats at a dose of 400x3 mg/kg administered perorally", "type": "functional"}, "Sigmodon hispidus [33]": {"test_system": "Sigmodon hispidus", "experiment": "Filaricidal activity against Litomosoides carinii in cotton rats at a dosage of 10 mg/kg x 5 administered intraperitoneally at a day of 42", "settings": "route intraperitoneal"}}, "data": [{"smiles": "COC(=O)Nc1nc2cc(C(=O)c3ccccc3)ccc2[nH]1", "note": "[MEBENDAZOLE]", "values": [{"measurement": "Animals cured", "setting": "Cricetinae gen. sp. [1]", "result": 37.5, "unit": "%"}, {"measurement": "Worm reduction", "setting": "Cricetinae gen. sp. [1]", "result": 72, "unit": "%"}, {"measurement": "Death", "setting": "Mastomys natalensis [2]", "result": 100, "unit": "%"}, {"measurement": "Removal of microfilariae", "setting": "Mastomys natalensis [3]", "result": 53.1, "unit": "%"}, {"measurement": "Removal of microfilariae", "setting": "Mastomys natalensis [4]", "result": 100, "unit": "%"}, {"measurement": "Removal of microfilariae", "setting": "Mastomys natalensis [5]", "result": 0, "unit": "%"}, {"measurement": "Death", "setting": "Mastomys natalensis [6]", "result": 0, "unit": "%"}, {"measurement": "Removal of microfilariae", "setting": "Mastomys natalensis [7]", "result": 0, "unit": "%"}, {"measurement": "Death", "setting": "Litomosoides carinii", "result": 33.8, "unit": "%"}, {"measurement": "Removal of microfilariae", "setting": "Mastomys natalensis [8]", "result": 0, "unit": "%"}, {"measurement": "Animals cured", "setting": "Mus musculus [9]", "result": 0, "unit": "%"}, {"measurement": "Removal of microfilariae", "setting": "Mastomys natalensis [10]", "result": 0, "unit": "%"}, {"measurement": "Removal of microfilariae", "setting": "Mastomys natalensis [11]", "result": 100, "unit": "%"}, {"measurement": "Removal of microfilariae", "setting": "Rattus norvegicus [12]", "result": 74.3, "unit": "%"}, {"measurement": "Animals cured", "setting": "Cricetinae gen. sp. [13]", "result": 100, "unit": "%"}, {"measurement": "Removal of microfilariae", "setting": "Sigmodon hispidus [14]", "result": 96.3, "unit": "%"}, {"measurement": "Removal of microfilariae", "setting": "Sigmodon hispidus [15]", "result": 58.6, "unit": "%"}, {"measurement": "Death", "setting": "Mastomys natalensis [16]", "result": 100, "unit": "%"}, {"measurement": "Removal of microfilariae", "setting": "Rattus norvegicus [17]", "result": 57.7, "unit": "%"}, {"measurement": "Death", "setting": "Rattus norvegicus [18]", "result": 100, "unit": "%"}, {"measurement": "Removal of microfilariae", "setting": "Mastomys natalensis [19]", "result": 100, "unit": "%"}, {"measurement": "Removal of microfilariae", "setting": "Rattus norvegicus [20]", "result": 48.8, "unit": "%"}, {"measurement": "Animals cured", "setting": "Mus musculus [21]", "result": 66.6, "unit": "%"}, {"measurement": "Removal of microfilariae", "setting": "Mastomys natalensis [22]", "result": 100, "unit": "%"}, {"measurement": "Removal of microfilariae", "setting": "Mastomys natalensis [23]", "result": 0, "unit": "%"}, {"measurement": "Removal of microfilariae", "setting": "Mastomys natalensis [24]", "result": 100, "unit": "%"}, {"measurement": "Removal of microfilariae", "setting": "Mastomys natalensis [25]", "result": 85.5, "unit": "%"}, {"measurement": "Worm reduction", "setting": "Cricetinae gen. sp. [26]", "result": 100, "unit": "%"}, {"measurement": "Removal of microfilariae", "setting": "Mastomys natalensis [27]", "result": 0, "unit": "%"}, {"measurement": "Death", "setting": "Mastomys natalensis [28]", "result": 85.4, "unit": "%"}, {"measurement": "Removal of microfilariae", "setting": "Mastomys natalensis [29]", "result": 65.3, "unit": "%"}, {"measurement": "Removal of microfilariae", "setting": "Mastomys natalensis [30]", "result": 0, "unit": "%"}, {"measurement": "Removal of microfilariae", "setting": "Mastomys natalensis [31]", "result": 100, "unit": "%"}, {"measurement": "Animals cured", "setting": "Rattus norvegicus [32]", "result": 0, "unit": "%"}, {"measurement": "Removal of microfilariae", "setting": "Sigmodon hispidus [33]", "result": 100, "unit": "%"}]}]}
